Assay results published in US6956139B2, “(1R, 2S, 5R)-3-1-menthoxyalkan-1-OL cooling sensate” (Takasago International Corporation, priority 2000, dated 2005).

Tested on: evaluators
Assay: Six evaluators swished a 150 ppm solution of each compound; flavor quality and cooling reported at intervals after spitting out
Assay type: in vivo, human
Conditions: for quality of the flavor and cooling characteristics, 30 Minutes: 10 ml of 150 ppm solution swished 15 seconds and spit out, 30 minutes after spitting out; for Peak cool at (time) / cooling lasting (duration): 10 ml of 150 ppm solution swished 15 seconds, time after spitting out
Protocol: The enantiomeric compounds of the present invention, Examples 1 through 3 (E1, E2 and E3), were tested against the prior art racemic mixture of 2-(5-methyl-2-(methylethyl)-cyclohexyloxy)-ethan-1-ol (C1). Six evaluators swished 10 ml of a 150 ppm solution of each compound for 15 seconds and spit out. The quality of the flavor and cooling characteristics were reported at various intervals after spitting out.

SMILES | quality of the flavor and cooling characteristics, 30 Minutes | Peak cool at (time) [min] | cooling lasting (duration)
CC(C)[C@@H]1CC[C@@H](C)C[C@H]1OCCCCO [Example E3, [1′R,2′S,5′R]-4-(5′-methyl-2′-(methylethyl)cyclohexyloxy)butan-1-ol] | cooling | 7 | 
CC1CCC(C(C)C)C(OCCO)C1 (centres unmarked) [Example C1, (d,l)-2-(5′-methyl-2′-(methylethyl)cyclohexyloxy)ethan-1-ol, reference compound] | no cooling |  | 10 to 15 min
CC(C)[C@@H]1CC[C@@H](C)C[C@H]1OCCO [Example E1, [1′R,2′S,5′R]-2-(5′-methyl-2′-(methylethyl)cyclohexyloxy)ethan-1-ol] | cooling | 15 | 
CC(C)[C@@H]1CC[C@@H](C)C[C@H]1OCCCO [Example E2, [1′R,2′S,5′R]-3-(5′-methyl-2′-(methylethyl)cyclohexyloxy)propan-1-ol] |  | 10 to 13 | cooling 30+ min.
